Experimental findings from patent EP3057951B1, “METHYLENE LINKED QUINOLINYL MODULATORS OF ROR-GAMMA-T” (Janssen Pharmaceutica NV, priority 2013, dated 2015) are described below.

For assay [1], the target named is T1, wild type human RORγt ligand binding domain (RORyt LBD) (Homo sapiens, UniProt P51449).
T1 construct: His-tag (N); TurboTEV protease cleavage site (ENLYFQG) (N); made in house; host or cells: E. coli (pHIS1, modified pET vector)
T1 sequence (P51449 258-518): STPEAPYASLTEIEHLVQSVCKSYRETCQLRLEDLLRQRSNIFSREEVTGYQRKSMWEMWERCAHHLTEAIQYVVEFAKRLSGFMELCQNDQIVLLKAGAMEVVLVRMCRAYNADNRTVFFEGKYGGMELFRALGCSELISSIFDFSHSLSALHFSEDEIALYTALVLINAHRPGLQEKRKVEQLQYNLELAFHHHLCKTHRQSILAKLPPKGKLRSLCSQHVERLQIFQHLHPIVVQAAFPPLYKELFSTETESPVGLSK
Nature of the assay: RORγt ThermoFluor assay (thermal shift, binding affinity KD). A general note: Differential scanning fluorimetry follows unfolding on heating by fluorescence.

Assay [2] concerns the target T2, wild type human RORγt LBD (Homo sapiens, UniProt P51449).
T2 construct: expressed in transfected cells; host or cells: HEK293T
T2 sequence (P51449 258-518): T1 sequence (P51449 258-518)
Nature of the assay: RORγt (LBD) Reporter Assay (GAL4-luciferase, HEK293T cells). Format: cell-based. The conditions noted are these: for inhibition at 6 µM: HEK-293T, read-out: RORγt (LBD) Reporter Assay, % inhibition @ 6 µM, 6 µM compound concentration; for RORγt (LBD) Reporter Assay, % inhibition @ 6 µM: 6 µM compound concentration. A general note: Reporter assays use an easily measured gene product as a stand-in for the process of interest.

Setting [3] is: HEK293T cells, value after the comma with ∼, > or < could not be included in the average.

pIC50, pKd: −log10 of the molar value. Read-outs that look alike come from different tables or passages of the source. Bounds are passed on as bounds.

`COc1nc2ccc(C(O)(c3ccc(F)cc3)c3cncn3C)cc2c(Cl)c1Cc1ccc(-n2cccn2)cc1` (centres unmarked) [Example 160a, (3-(4-(1H-Pyrazol-1-yl)benzyl)-4-chloro-2-methoxyquinolin-6-yl)(4-fluorophenyl)(1-methyl-1H-imidazol-5-yl)methanol]: the pKd in assay [1] was 7.31. In assay [2] (HEK293T cells), the pIC50 was 7.23 and the inhibition at 6 µM came out at 112%.

For the compound `COc1nc2ccc(C(O)(c3ccc(C)nc3C)c3cnnn3C)cc2c(Cl)c1Cc1ccc(N(C)C)cc1` (single isomer, unassigned) [Example 24b, (4-Chloro-3-(4-(dimethylamino)benzyl)-2-methoxyquinolin-6-yl)(2,6-dimethylpyridin-3-yl)(1-methyl-1H-1,2,3-triazol-5-yl)methanol], in assay [1], the pKd was 6.89. Also, in assay [2] (setting [3]), the pIC50 was approximately 6.66. Further, the inhibition at 6 µM in assay [2] came out at 92%.

In the case of `COc1nc2ccc(C(O)(c3cnnn3C)c3cnc(C)n3C)cc2c(Cl)c1Cc1ccc(F)cc1` (racemic) [Example 65a], the pKd in assay [1] is 9.72. The compound further had a pIC50 in assay [2] (setting [3]) of 8.00. The inhibition at 6 µM in assay [2] is 74%.

Consider `COc1nc2ccc(C(O)(c3ccccc3)C3CCN(C(C)=O)CC3)cc2c(Cl)c1Cc1ccc(-n2cncn2)cc1` (centres unmarked) [Example 18a, 1-(4-((3-(4-(1H-1,2,4-Triazol-1-yl)benzyl)4-chloro-2-methoxyquinolin-6-yl)(hydroxy)(phenyl)methyl)piperidin-1-yl)ethanone], for which the negative-log Kd (pKd) in assay [1] was 7.85. In addition, in assay [2] (setting [3]), the pIC50 is 7.34. Besides, in assay [2], the inhibition at 6 µM stood at 99%.

For the compound `CCc1nc2ccc(C(O)(c3ccc(C)nc3C)c3cnnn3C)cc2c(Cl)c1Cc1ccc(C(F)(F)F)cc1` (centres unmarked) [Example 23a, (4-Chloro-2-ethyl-3-(4-(trifluoromethyl)benzyl)quinolin-6-yl)(2,6-dimethylpyridin-3-yl)(1-methyl-1H-1,2,3-triazol-5-yl)methanol], the pKd in assay [1] was 9.85. In assay [2] (setting [3]), this compound showed a negative logarithm of the IC50 (pIC50) of 7.74. Also, in assay [2], the inhibition at 6 µM is 99%.

For the compound `Cn1cc(-c2nc3ccc(C(O)(c4ccc(C(F)(F)F)nc4)c4cncn4C)cc3c(C#N)c2Cc2ccccc2)cn1` (single isomer, unassigned) [Example 112b, 3-Benzyl-6-(hydroxy(1-methyl-1H-imidazol-5-yl)(6-(trifluoromethyl)pyridin-3-yl)methyl)-2-(1-methyl-1H-pyrazol-4-yl)quinoline-4-carbonitrile], the pKd in assay [1] was 5.66. Also, the “RORγt (LBD) Reporter Assay, % inhibition @ 6 µM” value (“RORγt … % inhibition @ 6 µM” for short) in assay [2] was found to be 92%. In assay [2] (setting [3]), the pIC50 is 6.35.

For `COc1nc2ccc(C(O)(c3ccccc3)C3CCN(C(C)=O)CC3)cc2c(Cl)c1Cc1ccc(C(F)(F)F)cc1` (single isomer, unassigned) [Example 69b, 1-(4-((4-Chloro-2-methoxy-3-(4-(trifluoromethyl)benzyl)quinolin-6-yl)(hydroxy)(phenyl)methyl)piperidin-1-yl)ethanone], the pKd in assay [1] is 8.74. In addition, the pIC50 in assay [2] (setting [3]) is 7.44. Further, in assay [2], the inhibition at 6 µM came to 100%.

In the case of `Cc1cc(C(O)(c2ccnc(C(F)(F)F)c2)c2cncn2C)cc2c(C#N)c(Cc3ccc(-n4cccn4)cc3)c(C#N)nc12` (single isomer, unassigned) [Example 83b, 3-(4-(1H-Pyrazol-1-yl)benzyl)-6-(hydroxy(1-methyl-1H-imidazol-5-yl)(2-(trifluoromethyl)pyridin-4-yl)methyl)-8-methylquinoline-2,4-dicarbonitrile], the pKd in assay [1] was 9.17. Also, the pIC50 in assay [2] (setting [3]) was 7.89. The inhibition at 6 µM in assay [2] turned out to be 104%.

In the case of `COc1nc2ccc(C(O)(c3ccc(C#N)cc3)c3cncn3C)cc2c(Cl)c1Cc1ccc(-n2cncn2)cc1` (single isomer, unassigned) [Example 14c, 4-((3-(4-(1H-1,2,4-Triazol-1-yl)benzyl)-4-chloro-2-methoxyquinolin-6-yl)(hydroxy)(1-methyl-1H-imidazol-5-yl)methyl)benzonitrile], the pKd in assay [1] was 8.26. In addition, the “RORγt … % inhibition @ 6 µM” value in assay [2] is on record as 106%. In assay [2] (setting [3]), this compound showed a pIC50 of 7.62.

Take `COc1nc2ccc(C(O)(c3ccc(C#N)cc3)c3cncn3C)cc2c(C#N)c1Cc1ccc(-n2cncn2)cc1` (single isomer, unassigned) [Example 15b, 3-(4-(1H-1,2,4-Triazol-1-yl)benzyl)-6-((4-cyanophenyl)(hydroxy)(1-methyl-1H-imidazol-5-yl)methyl)-2-methoxyquinoline-4-carbonitrile]: in assay [1], the negative-log Kd (pKd) is 6.85. In assay [2] (setting [3]), this compound gave a pIC50 of 6.39. In addition, the inhibition at 6 µM in assay [2] amounted to 99%.

Regarding `COc1nc2ccc(C(O)(c3sc(C)nc3C)c3cnnn3C)cc2c(Cl)c1Cc1ccc(-n2cccn2)cc1` (single isomer, unassigned) [Example 21b, (3-(4-(1H-Pyrazol-1-yl)benzyl)-4-chloro-2-methoxyquinolin-6-yl)(2,4-dimethylthiazol-5-yl)(1-methyl-1H-1,2,3-triazol-5-yl)methanol], the negative-log Kd (pKd) in assay [1] was 7.66. Further, the pIC50 in assay [2] (setting [3]) is 6.89. The inhibition at 6 µM in assay [2] is 99%.

Regarding `COc1nc2ccc(C(O)(c3ccc(C#N)cc3)c3cncn3C)cc2c(Cl)c1Cc1ccc(C(F)(F)F)nc1` (centres unmarked) [Example 38a, 4-((4-Chloro-2-methoxy-3-((6-(trifluoromethyl)pyridin-3-yl)methyl)quinolin-6-yl)(hydroxy)(1-methyl-1H-imidazol-5-yl)methyl)benzonitrile], the pKd in assay [1] is 7.26. In assay [2] (setting [3]), this compound had a pIC50 of 8.72. The inhibition at 6 µM in assay [2] was determined as 100%.

`COc1ccc(C(O)(c2cccnc2)c2ccc3nc(OC)c(Cc4ccc(-n5cccn5)cc4)c(Cl)c3c2)cc1` (centres unmarked) [Example 63]: in assay [1], the pKd was 7.17. In assay [2] (setting [3]), this compound had a pIC50 of 6.85. In addition, the inhibition at 6 µM in assay [2] amounted to 99%.

Turning to `COc1nc2ccc(C(O)(c3ccc(F)cc3)c3cccnc3)cc2c(Cl)c1Cc1ccc(-n2cccn2)cc1` (single isomer, unassigned) [Example 158b, (3-(4-(1H-Pyrazol-1-yl)benzyl)-4-chloro-2-methoxyquinolin-6-yl)(4-fluorophenyl)(pyridin-3-yl)methanol], the pKd in assay [1] is 6.85. In assay [2] (HEK293T cells), the pIC50 was 6.77 and the inhibition at 6 µM stood at 107%.

As for `COc1nc2ccc(C(O)(c3sc(C)nc3C)c3cnnn3C)cc2c(Cl)c1Cc1ccc(-n2cccn2)cc1` (single isomer, unassigned) [Example 21c, (3-(4-(1H-Pyrazol-1-yl)benzyl)-4-chloro-2-methoxyquinolin-6-yl)(2,4-dimethylthiazol-5-yl)(1-methyl-1H-1,2,3-triazol-5-yl)methanol], the pKd in assay [1] was 10.10. In assay [2], the “RORγt … % inhibition @ 6 µM” value is on record as 98%. In assay [2] (setting [3]), this compound had a pIC50 of 8.06.

On to `COc1nc2ccc(C(O)(c3sc(C)nc3C)c3cnnn3C)cc2cc1Cc1ccc(C(F)(F)F)cc1` (single isomer, unassigned) [Example 92c, (2,4-Dimethylthiazol-5-yl)(2-methoxy-3-(4-(trifluoromethyl)benzyl)quinolin-6-yl)(1-methyl-1H-1,2,3-triazol-5-yl)methanol], for which the pKd in assay [1] is 7.72. For the same compound, the “RORγt … % inhibition @ 6 µM” value in assay [2] turned out to be 96%. In addition, the pIC50 in assay [2] (setting [3]) is 7.52.

For `COc1nc2ccc(C(O)(c3ccccc3)C3CCN(C(C)=O)CC3)cc2c(Cl)c1Cc1ccc(C(F)(F)F)cc1` (single isomer, unassigned) [Example 69c, 1-(4-((4-Chloro-2-methoxy-3-(4-(trifluoromethyl)benzyl)quinolin-6-yl)(hydroxy)(phenyl)methyl)piperidin-1-yl)ethanone], in assay [1], the pKd is 7.46. The “RORγt … % inhibition @ 6 µM” value in assay [2] is reported as 99%. In addition, the pIC50 in assay [2] (setting [3]) was 7.16.

On to `COc1nc2ccc(C(O)(c3ccccc3)C3CCN(C(C)=O)CC3)cc2c(Cl)c1Cc1ccc(F)cc1` (centres unmarked) [Example 50, 1-(4-((4-Chloro-3-(4-fluorobenzyl)-2-methoxyquinolin-6-yl)(hydroxy)(phenyl)methyl)piperidin-1-yl)ethanone], for which, in assay [1], the pKd is 8.00. The same compound showed a negative-log IC50 (pIC50) in assay [2] (setting [3]) of approximately 5.40. For the same compound, in assay [2], the inhibition at 6 µM was 82%.

For `CCN(CC)c1nc2ccc(C(O)(c3ccc(Cl)cc3)c3cncn3C)cc2c(C#N)c1Cc1ccc(-n2cccn2)cc1` (single isomer, unassigned) [Example 154c, 3-(4-(1H-pyrazol-1-yl)benzyl)-6-((4-chlorophenyl)(hydroxy)(1-methyl-1H-imidazol-5-yl)methyl)-2-(diethylamino)quinoline4-carbonitrile], the negative-log Kd (pKd) in assay [1] was less than 4.25. In assay [2] (HEK293T cells), the pIC50 is 6.00.

On to `COc1nc2ccc(C(O)(c3cccnc3)c3ccc(Cl)c(Cl)c3)cc2c(Cl)c1Cc1ccc(-n2cccn2)cc1` (single isomer, unassigned) [Example 161c, (3-(4-(1H-Pyrazol-1-yl)benzyl)-4-chloro-2-methoxyquinolin-6-yl)(3,4-dichlorophenyl)(pyridin-3-yl)methanol], for which the pKd in assay [1] was 7.96. In addition, in assay [2] (HEK293T cells), the “RORγt … % inhibition @ 6 µM” value is reported as 102% and the negative-log IC50 (pIC50) is 7.11.

What is called pKd is −log10 of the Kd, conventionally taken in molar units. By pIC50 is commonly meant the IC50 on a negative log10 scale, so that one unit is a factor of ten. A low value points to a large IC50.
